Measurements reported in patent publication US20190030018A1 (Celgene Corporation, priority 2017, published 2019).
Like-named read-outs stand apart in the source and are kept apart here.

Assays:
[1] = system: MV-4-11; test: In vitro combination studies, CellTitre-Glo cell viability
[2] = system: HL-60; test: as above
[3] = system: MOLM-13; test: as above
[4] = system: AML cell lines; test: In vitro combination studies, CellTitre-Glo cell viability (Bliss, Loewe, HSA, CES synergy analysis); details: FLT3 and JAK inhibitors in combination with Compound 1 in MOLM-13 and NOMO-1 cell lines
Experimental: where EA and EB represent the effect of each single agent and EAB represents the effect of the combination at a given dose.
All data was analyzed using the CES equation:
In cases where single agent dose response fit a Hill slope, the CES analysis was compared to Loewe, Bliss, and HSA models.

[5] = system: ML-2; test: In vitro combination studies, CellTitre-Glo cell viability
[6] = system: F-36-P; test: as above
[7] = system: HNT-34; test: as above
[8] = system: OCT-AML-3; test: as above
[9] = system: NOMO-1; test: as above
[10] = system: OCI-AML-2; test: as above
[11] = system: KG-1; test: as above
[12] = MV-4-11, in combination with Compound 1
[13] = HL-60, in combination with Compound 1
[14] = MOLM-13, in combination with Compound 1
[15] = ML-2, in combination with Compound 1
[16] = F-36-P, in combination with Compound 1
[17] = HNT-34, in combination with Compound 1
[18] = OCI-AML-3, in combination with Compound 1
[19] = NOMO-1, in combination with Compound 1
[20] = OCI-AML-2, in combination with Compound 1
[21] = KG-1, in combination with Compound 1

Row | Molecule | Synergy analysis for combinations with Compound 1 [1, 12] | Synergy analysis for combinations with Compound 1 [2, 13] | Synergy analysis for combinations with Compound 1 [3, 14] | Synergy [4] | Synergy analysis for combinations with Compound 1 [5, 15] | Synergy analysis for combinations with Compound 1 [6, 16] | Synergy analysis for combinations with Compound 1 [7, 17] | Synergy analysis for combinations with Compound 1 [8, 18] | Synergy analysis for combinations with Compound 1 [9, 19] | Synergy analysis for combinations with Compound 1 [10, 20] | Synergy analysis for combinations with Compound 1 [11, 21] | further results
1 | CC1(COc2ccc3c(c2)ncn3-c2ccc3cccc(N4CCC(N)CC4)c3n2)COC1 [Crenolanib] | Yes | No | Yes | Yes | No | No | No | No | No | No | No | 
2 | CC[C@@](C)(Nc1ccnc(-c2c[nH]c3ncccc23)n1)C(=O)NCC(F)(F)F [Decernotinib] |  |  |  | Yes |  |  |  |  |  |  |  | 
3 | O=C(Nc1nc2cccc(-c3ccc(CN4CCS(=O)(=O)CC4)cc3)n2n1)C1CC1 [Filgotinib] |  |  |  | Yes |  |  |  |  |  |  |  | 
4 | CN(C)C(=N)N=C(N)N [Metformin] | No | No | No |  | No | No | No | No | No | No | No | 
5 | C[C@@]12OC(=O)[C@]1([C@@H](O)[C@@H]1C=CCCC1)NC(=O)[C@@H]2CCCl [NPI-0052] |  |  |  |  |  |  |  |  |  |  |  | Synergy analysis for combinations with Compound 1 [1]: No; Synergy analysis for combinations with Compound 1 [2]: No; Synergy analysis for combinations with Compound 1 [3]: No; Synergy analysis for combinations with Compound 1 [5]: No; Synergy analysis for combinations with Compound 1 [6]: No; Synergy analysis for combinations with Compound 1 [7]: No; Synergy analysis for combinations with Compound 1 [8]: No; Synergy analysis for combinations with Compound 1 [9]: No; Synergy analysis for combinations with Compound 1 [10]: No; Synergy analysis for combinations with Compound 1 [11]: No
6 | COC(=O)C[C@](O)(CCCC(C)(C)O)C(=O)O[C@@H]1C(OC)=C[C@]23CCCN2CCc2cc4c(cc2[C@H]13)OCO4 [Omacetaxine] | No | No | No |  | No | No | No | No | No | No | No | 
7 | O=C(/C=C/c1ccccc1)NC(NC(=S)Nc1cccc2cccnc12)C(Cl)(Cl)Cl (stereo not shown) [Salubrinol] | No | No | No |  | No | No | No | No | No | No | No | 
8 | COC(=O)[C@H]1[C@@H](O)[C@@]2(O)c3c(OC)cc(O[C@@H]4O[C@@H]([C@H](O)CO)CO[C@H]4OC)cc3O[C@@]2(c2ccc(OC)cc2)[C@@H]1c1ccccc1 [Silvestrol] | No | No | No |  | No | No | No | No | No | No | No | 
9 | C/C=C(/C)C(=O)O[C@H]1C(C)=C2[C@H]([C@@H]1OC(=O)CCCCCCC)[C@@](C)(OC(C)=O)C[C@H](OC(=O)CCC)[C@@]1(O)[C@H]2OC(=O)[C@@]1(C)O [Thapsigargin] | No | No | No |  | No | No | No | No | No | No | No | 
10 | CC(C)[C@]12O[C@H]1[C@@H]1O[C@]13[C@]1(O[C@H]1C[C@H]1C4=C(CC[C@@]13C)C(=O)OC4)[C@@H]2O [Triptolide] | No | No | Yes |  | No | No | No | No | No | No | No | 
11 | C[C@H](NC(=O)Cc1cc(F)cc(F)c1)C(=O)N[C@@H]1C(=O)N(C)c2ccccc2-c2ccccc21 [YO-01027] | No | No | No |  | No | No | No | No | No | No | No | 
12 | C1=C/COCc2cc(ccc2OCCN2CCCC2)Nc2nccc(n2)-c2cccc(c2)COC/1 [pacritinib, reference compound] |  |  |  | Yes |  |  |  |  |  |  |  | 
13 | CC(C)(C)c1cc(NC(=O)Nc2ccc(-c3cn4c(n3)sc3cc(OCCN5CCOCC5)ccc34)cc2)no1 [quizartinib, reference compound] |  |  |  | Yes |  |  |  |  |  |  |  | 
14 | chloro-N,N-diethyl-5-((4-(2-(4-(3-methylureido)phenyl)pyridin-4-yl)pyrimidin-2-yl)amino)benzenesulfonamide [compound Ii, reference compound] | Yes | No | Yes |  | No | Yes | No | Yes | Yes | Yes | No | 
15 | pladienolide B [reference compound] | Yes | No | Yes |  | No | Yes | No | No | Yes | Yes | No | 
